Measured values reported in US20100311748A1, “HETEROCYCLIC AMIDES USEFUL FOR THE TREATMENT OF CANCER AND PSORIASIS” (ASTRAZENECA AB, priority 2007, published 2010).

Tested on: Hedgehog pathway
Assay: Hedgehog Pathway Cellular Differentiation Assay (alkaline phosphatase production in C3H10T1/2 cells with Shh ligand)
Format: cell-based
Conditions: Shh ligand conditioned media, 72 h, alkaline phosphatase; for inhibition at 3 µM: Mus musculus, C3H 10T1/2, 3 μM compound
How it was run: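 C3H10T1/2 cells in DMEM/2% FBS with Shh-conditioned medium were treated 72 h with compound, threefold dilutions from 30 μM to 3 nM. After RIPA lysis, alkaline phosphatase was read with pNp (1 mg/mL, diethanolamine pH 9.8) at 30 °C, absorbance 405 nm. Percent inhibition and IC50 came from absorbance.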

Structure (SMILES): Cc1ccc(-c2ncc[nH]2)cc1NC(=O)c1ccc(/C=C/c2ccccn2)cc1 [Example 109, N-[5-(1H-imidazol-2-yl)-2-methylphenyl]-4-[(E)-2-pyridin-2-ylethenyl]benzamide]
- inhibition at 3 µM: 91.3%

Structure (SMILES): Cc1ccc(-c2ncc[nH]2)cc1NC(=O)c1ccc(OC(C)c2ccccn2)cc1 (centres unmarked) [Example 110, N-[5-(1H-imidazol-2-yl)-2-methylphenyl]-4-(1-pyridin-2-ylethoxy)benzamide]
- inhibition at 3 µM: 92.3%

Structure (SMILES): Cc1ccc(-c2ncc[nH]2)cc1NC(=O)c1ccc(OCc2ccccn2)nc1 [Example 111, N-[5-(1H-imidazol-2-yl)-2-methylphenyl]-6-(pyridin-2-ylmethoxy)pyridine-3-carboxamide]
- inhibition at 3 µM: -0.1%

Structure (SMILES): Cc1ccc(-c2ncc[nH]2)cc1NC(=O)c1ccc(OCc2ccccn2)cn1 [Example 112, N-[5-(1H-imidazol-2-yl)-2-methylphenyl]-5-(pyridin-2-ylmethoxy)pyridine-2-carboxamide]
- inhibition at 3 µM: 54.3%

Structure (SMILES): Cc1cc(C)c(-c2cn(C)cn2)cc1NC(=O)c1ccc(OCc2ccccn2)cn1 [Example 113, N-(2,4-dimethyl-5-(1-methyl-1H-imidazol-4-yl)phenyl)-5-(pyridin-2-ylmethoxy)picolinamide]
- inhibition at 3 µM: 84.7%

Structure (SMILES): Cc1ccc(-c2c[nH]nn2)cc1NC(=O)c1ccc(OCc2ccccn2)cc1 [Example 114, N-(2-methyl-5-(1H-1,2,3-triazol-4-yl)phenyl)-4-(pyridin-2-ylmethoxy)benzamide]
- inhibition at 3 µM: 73.2%

Structure (SMILES): Cc1ccc(-c2nccn2C)cc1NC(=O)c1ccc(OCc2cc(N3CCN(C)CC3)ccc2C#N)cc1 [Example 115, 4-(2-cyano-5-(4-methylpiperazin-1-yl)benzyloxy)-N-(2-methyl-5-(1-methyl-1H-imidazol-2-yl)phenyl)benzamide]
- inhibition at 3 µM: 82.8%

Structure (SMILES): Cc1ccc(-c2nccn2C)cc1NC(=O)c1ccc(OCc2cc(N(C)CCN(C)C)ccc2C#N)cc1 [Example 116, 4-[(2-cyano-5-{[2-(dimethylamino)ethyl](methyl)amino}benzyl)oxy]-N-[2-methyl-5-(1-methyl-1H-imidazol-2-yl)phenyl]benzamide]
- inhibition at 3 µM: 83.4%

Structure (SMILES): Cc1ccc(-c2ncc[nH]2)cc1NC(=O)c1ccc(NCc2ccccn2)cc1 [Example 117, N-(5-(1H-imidazol-2-yl)-2-methylphenyl)-4-(pyridin-2-ylmethylamino)benzamide]
- inhibition at 3 µM: 68.8%

Structure (SMILES): Cc1ccc(-c2ncc[nH]2)cc1NC(=O)c1ccc(NC(C)c2ccccn2)cc1 (centres unmarked) [Example 118, N-[5-(1H-imidazol-2-yl)-2-methylphenyl]-4-[(1-pyridin-2-ylethyl)amino]benzamide]
- inhibition at 3 µM: 75.4%

Structure (SMILES): Cc1ccc(-c2ncc[nH]2)cc1NC(=O)c1ccc(OCc2cccc(Br)n2)cc1 [Example 119, N-(5-(1H-imidazol-2-yl)-2-methylphenyl)-4-((6-bromopyridin-2-yl)methoxy)benzamide]
- inhibition at 3 µM: 92.4%

Structure (SMILES): Cc1ccc(-c2ncc[nH]2)cc1NC(=O)c1ccc(OCc2ncccc2Br)cc1 [Example 120, 4-[(3-bromopyridin-2-yl)methoxy]-N-[5-(1H-imidazol-2-yl)-2-methylphenyl]benzamide]
- inhibition at 3 µM: 78.3%

Structure (SMILES): Cc1ccc(-c2nccn2Cc2ncccc2Br)cc1NC(=O)c1ccc(OCc2ncccc2Br)cc1 [Example 121, 4-[(3-bromopyridin-2-yl)methoxy]-N-(5-{1-[(3-bromopyridin-2-yl)methyl]-1H-imidazol-2-yl}-2-methylphenyl)benzamide]
- inhibition at 3 µM: 77.8%

Structure (SMILES): Cc1ccc(-c2ncc[nH]2)cc1NC(=O)c1ccc(OCc2cccc(OCCO)n2)cc1 [Example 122]
- % Inhibition at 3 μM (3 μM compound): 84.6%

Structure (SMILES): COc1cccc(COc2ccc(C(=O)Nc3cc(-c4ncc[nH]4)ccc3C)cc2)n1 [Example 123, N-(5-(1H-imidazol-2-yl)-2-methylphenyl)-4-((6-methoxypyridin-2-yl)methoxy)benzamide]
- inhibition at 3 µM: 84.7%

Structure (SMILES): Cc1ccc(-c2ncc[nH]2)cc1NC(=O)c1ccc(OCc2cccc(OCCN(C)C)n2)cc1 [Example 124, N-(5-(1H-imidazol-2-yl)-2-methylphenyl)-4-((6-(2-(dimethylamino)ethoxy)pyridin-2-yl)methoxy)benzamide]
- inhibition at 3 µM: 46.8%

Structure (SMILES): Cc1ccc(-c2ncc[nH]2)cc1NC(=O)c1ccc(OCc2cccc(N(C)C)n2)cc1 [Example 125, N-(5-(1H-imidazol-2-yl)-2-methylphenyl)-4-((6-(dimethylamino)pyridin-2-yl)methoxy)benzamide]
- inhibition at 3 µM: 76.7%

Structure (SMILES): Cc1ccc(-c2ncc[nH]2)cc1NC(=O)c1ccc(OCc2cc(N3CCN(C)CC3)ccn2)cc1 [Example 126, N-[5-(1H-imidazol-2-yl)-2-methylphenyl]-4-{[4-(4-methylpiperazin-1-yl)pyridin-2-yl]methoxy}benzamide]
- inhibition at 3 µM: 47.2%

Structure (SMILES): Cc1ccc(-c2ncc[nH]2)cc1NC(=O)c1ccc(OCc2cc(N(C)C)ccn2)cc1 [Example 127, 4-{[4-(dimethylamino)pyridin-2-yl]methoxy}-N-[5-(1H-imidazol-2-yl)-2-methylphenyl]benzamide]
- inhibition at 3 µM: 76.3%

Structure (SMILES): Cc1ccc(-c2ncc[nH]2)cc1NC(=O)c1ccc(OCc2cccc(N3CCN(C)CC3)n2)cc1 [Example 128, N-(5-(1H-imidazol-2-yl)-2-methylphenyl)-4-((6-(4-methylpiperazin-1-yl)pyridin-2-yl)methoxy)benzamide]
- inhibition at 3 µM: 81.5%

Structure (SMILES): Cc1ccc(-c2ncc[nH]2)cc1NC(=O)c1ccc(OCc2cccc(N3CCOCC3)n2)cc1 [Example 129, N-[5-(1H-imidazol-2-yl)-2-methylphenyl]-4-[(6-morpholin-4-ylpyridin-2-yl)methoxy]benzamide]
- inhibition at 3 µM: 82.8%

Structure (SMILES): COc1ccc(COc2ccc(C(=O)Nc3cc(-c4ncc[nH]4)ccc3C)cc2)nc1 [Example 130, N-(5-(1H-imidazol-2-yl)-2-methylphenyl)-4-((5-methoxypyridin-2-yl)methoxy)benzamide]
- inhibition at 3 µM: 91.9%

Structure (SMILES): Cc1ccc(-c2ncc[nH]2)cc1NC(=O)c1ccc(OCc2ccc(OCCO)cn2)cc1 [Example 131, N-(5-(1H-imidazol-2-yl)-2-methylphenyl)-4-((5-(2-hydroxyethoxy)pyridin-2-yl)methoxy)benzamide]
- inhibition at 3 µM: 72.7%

Structure (SMILES): Cc1ccc(-c2ncc[nH]2)cc1NC(=O)c1ccc(OCc2cc(OCCO)ccn2)cc1 [Example 132, N-(5-(1H-imidazol-2-yl)-2-methylphenyl)-4-((4-(2-hydroxyethoxy)pyridin-2-yl)methoxy)benzamide]
- inhibition at 3 µM: 77.1%

Structure (SMILES): Cc1ccc(-c2ncc[nH]2)cc1NC(=O)c1ccc(COc2ccccc2C#N)cc1 [Example 133, 4-[(2-cyanophenoxy)methyl]-N-[5-(1H-imidazol-2-yl)-2-methylphenyl]benzamide]
- inhibition at 3 µM: 77%

Structure (SMILES): Cc1ccc(-c2ncc[nH]2)cc1NC(=O)c1ccc(COc2ccccn2)cc1 [Example 134, N-[5-(1H-imidazol-2-yl)-2-methylphenyl]-4-[(pyridin-2-yloxy)methyl]benzamide]
- inhibition at 3 µM: 77.3%

Structure (SMILES): COc1cccnc1COc1ccc(C(=O)Nc2cc(-c3ncc[nH]3)ccc2C)cc1 [Example 135, N-(5-(1H-imidazol-2-yl)-2-methylphenyl)-4-((3-methoxypyridin-2-yl)methoxy)benzamide]
- inhibition at 3 µM: 76.9%

Structure (SMILES): Cc1ccc(-c2ncc[nH]2)cc1NC(=O)c1ccc(OCc2ncccc2C#N)cc1 [Example 136, N-(5-(1H-imidazol-2-yl)-2-methylphenyl)-4-((3-cyanopyridin-2-yl)methoxy)benzamide]
- inhibition at 3 µM: 77%

Structure (SMILES): Cc1ccc(-c2ncc[nH]2)cc1NC(=O)c1ccc(OCc2ncccc2N2CCOCC2)cc1 [Example 137, N-(5-(1H-imidazol-2-yl)-2-methylphenyl)-4-((3-morpholinopyridin-2-yl)methoxy)benzamide]
- inhibition at 3 µM: 76.5%

Structure (SMILES): Cc1ccc(-c2ncc[nH]2)cc1NC(=O)c1ccc(OCc2ncccc2N2CCN(C)CC2)cc1 [Example 138, N-(5-(1H-imidazol-2-yl)-2-methylphenyl)-4-((3-(4-methylpiperazin-1-yl)pyridin-2-yl)methoxy)benzamide]
- inhibition at 3 µM: 42.2%

Structure (SMILES): Cc1ccc(-c2ncc[nH]2)cc1NC(=O)c1ccc(OCc2ccc(N3CCOCC3)cn2)cc1 [Example 139, N-(5-(1H-imidazol-2-yl)-2-methylphenyl)-4-((5-morpholinopyridin-2-yl)methoxy)benzamide]
- inhibition at 3 µM: 84.1%

Structure (SMILES): Cc1ccc(-c2ncc[nH]2)cc1NC(=O)c1ccc(NCc2ccc(N3CCOCC3)cn2)cc1 [Example 140, N-(5-(1H-imidazol-2-yl)-2-methylphenyl)-4-((5-morpholinopyridin-2-yl)methylamino)benzamide]
- inhibition at 3 µM: 85.5%

Structure (SMILES): Cc1ccc(-c2ncc[nH]2)cc1NC(=O)c1ccc(OCC2CCCCN2C(=O)OC(C)(C)C)cc1 (centres unmarked) [Example 141, tert-butyl 2-((4-(5-(1H-imidazol-2-yl)-2-methylphenylcarbamoyl)phenoxy)methyl)piperidine-1-carboxylate]
- inhibition at 3 µM: 85.3%

Structure (SMILES): Cc1ccc(-c2ncc[nH]2)cc1NC(=O)c1ccc(OCC2CCCCN2)cc1 (centres unmarked) [Example 142, N-(5-(1H-imidazol-2-yl)-2-methylphenyl)-4-(piperidin-2-ylmethoxy)benzamide]
- inhibition at 3 µM: 31.3%

Structure (SMILES): Cc1ccc(-c2ncc[nH]2)cc1NC(=O)c1ccc(OCC2CCCCN2C)cc1 (centres unmarked) [Example 143, N-(5-(1H-imidazol-2-yl)-2-methylphenyl)-4-((1-methylpiperidin-2-yl)methoxy)benzamide]
- inhibition at 3 µM: 62.3%

Structure (SMILES): Cc1ccc(-c2ncc[nH]2)cc1NC(=O)c1ccc(OCc2ncccc2O)cc1 [Example 144, N-(5-(1H-imidazol-2-yl)-2-methylphenyl)-4-((3-hydroxypyridin-2-yl)methoxy)benzamide]
- inhibition at 3 µM: 8.8%

Structure (SMILES): Cc1ccc(-c2ncc[nH]2)cc1NC(=O)c1ccc(Oc2ccccc2)nc1 [Example 145, N-[5-(1H-imidazol-2-yl)-2-methyl-phenyl]-6-phenoxy-pyridine-3-carboxamide]
- inhibition at 3 µM: 67.1%

Structure (SMILES): Cc1ccc(-c2ncc[nH]2)cc1NC(=O)c1cccc(C#N)c1 [Example 146, 3-cyano-N-[5-(1H-imidazol-2-yl)-2-methyl-phenyl]benzamide]
- inhibition at 3 µM: 17.1%
